Test results: patent publication US7829665B2 (priority 2005, dated 2010)
Read-outs that look alike come from different tables or passages of the source.

Experiments:
[1] = target: T1, full-length NS3/NS4A-2 (HCV NS3 protease) (Hepatitis C virus genotype 1a, UniProt P27958); assay: NS3-NS4 protease assay / NS3 inhibition assay (RETS1 substrate, fluorescence kinetic read); format: biochemical
T1 construct: Recombinant E. coli or Baculovirus full-length NS3 was diluted to 3.33 μM with assay buffer; made in house; host or cells: E. coli or baculovirus (BV) expression system
Procedure, shortened: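 Full-length NS3 from E. coli (2 nM in assay) or baculovirus (3 nM) was precomplexed with excess NS4A-2 peptide, then preincubated 10 min at room temperature with serially diluted compounds starting at 50 microM. Reaction was started with RETS1 substrate at 8 μM before addition and read kinetically for 30 min (ex 335/em 495 nm). Four-parameter IC50s were converted to Ki by Cheng-Prusoff using Km 2.03 μM (E. coli) or 1.74 μM (BV).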

[2] = tested on: HCV sub-genomic replicon in GS4.3 cells (HuH-7 hepatoma cells); assay: Quantitation by ELISA of Neomycin phosphotransferase II (NPTII) in the HCV sub-genomic replicon, GS4.3; format: cell-based, hepatitis C virus; conditions: Hepatitis C virus
Method: The HCV sub-genomic replicon (1377/NS3-3′, accession No. AJ242652), stably maintained in HuH-7 hepatoma cells, was created by Lohmann et al. Science 285: 110-113 (1999). The replicon-containing cell culture, designated GS4.3, was obtained from Dr. Christoph Seeger of the Institute for Cancer Research, Fox Chase Cancer Center, Philadelphia, Pa.
GS4.3 cells were maintained at 37° C., 5% CO2, in DMEM (Gibco 11965-092) supplemented with L-glutamine 200 mM (100×) (Gibco25030-081), non-essential amino acids (NEAA) (Biowhittaker 13-114E), heat-inactivated (HI) Fetal Bovine Serum (FBS) (Hyclone SH3007.03) and 750 μg/ml geneticin (G418) (Gibco 10131-035). Cells were sub-divided 1:3 or 4 every 2-3 days.
24 h prior to the assay, GS4.3 cells were collected, counted, and plated in 96-well plates (Costar 3585) at 7500 cells/well in 100 μl standard maintenance medium (above) and incubated in the conditions above. To initiate the assay, culture medium was removed, cells were washed once with PBS (Gibco 10010-023) and 90 μl Assay Medium (DMEM, L-glutamine, NEAA, 10% HI FBS, no G418) was added. Inhibitors were made as a 10× stock in Assay Medium, (3-fold dilutions from 10 μM to 56 pM final concentration, final DMSO concentration 1%), 10 μl were added to duplicate wells, plates were rocked to mix, and incubated as above for 72 h.
An NPTII Elisa kit was obtained from AGDIA, Inc. (Compound direct ELISA test system for Neomycin Phosphotransferase II, PSP 73000/4800). Manufacturer's instructions were followed, with some modifications. 10×PEB-1 lysis buffer was made up to include 500 μM PMSF (Sigma P7626, 50 mM stock in isopropanol). After 72 h incubation, cells were washed once with PBS and 150 μl PEB-1 with PMSF was added per well. Plates were agitated vigorously for 15 minutes, room temperature, then frozen at −70° C. Plates were thawed, lysates were mixed thoroughly, and 100 μl were applied to an NPTII Elisa plate. A standard curve was made. Lysate from DMSO-treated control cells was pooled, serially diluted with PEB-1 with PMSF, and applied to duplicate wells of the ELISA plate, in a range of initial lysate amount of 150 ul-2.5 ul. In addition, 100 μl buffer alone was applied in duplicate as a blank. Plates were sealed and gently agitated at room temperature for 2 h. Following capture incubation, the plates were washed 5×300 μl with PBS-T (0.5% Tween-20, PBS-T was supplied in the ELISA kit). For detection, a 1× dilution of enzyme conjugate diluent MRS-2 (5×) was made in PBS-T, into which 1:100 dilutions of enzyme conjugates A and B were added, as per instructions. Plates were resealed, and incubated with agitation, covered, room temperature, for 2 h. The washing was then repeated and 100 μl of room temperature TMB substrate was added. After approximately 30 minutes incubation (room temperature, agitation, covered), the reaction was stopped with 50 μl 3M sulfuric acid. Plates were read at 450 nm on a Molecular Devices Versamax plate reader.
Inhibitor effect was expressed as a percentage of DMSO-treated control signal, and inhibition curves were calculated using a 4-parameter equation: y=A+((B−A)/(1+((C/x)^D))), where C is half-maximal activity or EC50.

[3] = recombinant E. coli or Baculovirus full-length NS3 with NS4A-2, read-out: NS3-NS4 IC50
[4] = Huh-7, GS4.3 cells, 72 h incubation, NPTII ELISA, read-out: Replicon EC50
[5] = Huh-7, Table 26, read-out: EC50

T1 sequence (P27958 1027-1657): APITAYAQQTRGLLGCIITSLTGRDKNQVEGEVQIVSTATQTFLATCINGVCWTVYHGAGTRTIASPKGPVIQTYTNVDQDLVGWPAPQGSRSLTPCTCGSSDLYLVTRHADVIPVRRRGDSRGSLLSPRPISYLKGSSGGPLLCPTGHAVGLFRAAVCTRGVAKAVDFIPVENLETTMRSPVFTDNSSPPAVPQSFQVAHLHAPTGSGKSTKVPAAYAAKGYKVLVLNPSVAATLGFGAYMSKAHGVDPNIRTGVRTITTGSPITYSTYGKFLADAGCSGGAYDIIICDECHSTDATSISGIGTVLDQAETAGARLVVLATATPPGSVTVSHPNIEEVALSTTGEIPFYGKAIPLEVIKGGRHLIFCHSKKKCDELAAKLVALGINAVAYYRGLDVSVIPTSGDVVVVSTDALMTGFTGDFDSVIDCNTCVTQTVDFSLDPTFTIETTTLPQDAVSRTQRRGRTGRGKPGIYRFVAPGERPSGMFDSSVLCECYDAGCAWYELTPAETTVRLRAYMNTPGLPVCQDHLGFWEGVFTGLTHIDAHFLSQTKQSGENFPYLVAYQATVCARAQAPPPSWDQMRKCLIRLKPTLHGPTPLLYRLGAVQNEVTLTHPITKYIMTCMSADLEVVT

Compound `O=C(N[C@H]1CCCCC/C=C\[C@@H]2C[C@@]2(C(=O)NS(=O)(=O)N2CC(F)(F)C2)NC(=O)C2C[C@@H](OC(=O)N3Cc4cccc(Cl)c4C3)CN2C1=O)OC1CCCC1` (some centres unmarked) [Compound 228] has an IC50 [1, 3] of less than 0.1 µM and an EC50 [2, 4] of less than 0.1 µM.

With `CN(C)CCOc1ccc2c(c1)CN(C(=O)O[C@@H]1C[C@H]3C(=O)N[C@]4(C(=O)O)C[C@H]4/C=C\CCCCC[C@H](NC(=O)OC4CCCC4)C(=O)N3C1)C2` [Compound 133] the IC50 [1, 3] was less than 0.1 µM and the EC50 [2, 4] was less than 10 µM.

`O=C(Cc1ccccc1)N[C@H]1CCCCC/C=C\[C@@H]2C[C@@]2(C(=O)NS(=O)(=O)C2CC2)NC(=O)C2CCCN2C1=O` (some centres unmarked) [Compound 2144] was tested, and the IC50 [1, 3] was greater than 10 µM and the EC50 [2, 5] was less than 1 µM.

`O=C1N[C@]2(C(=O)NS(=O)(=O)C3CC3)C[C@H]2/C=C\CCCCC[C@H](Nc2c(NCC(F)(F)F)c(=O)c2=O)C(=O)N2C[C@H](OC(=O)N3Cc4cccc(F)c4C3)C[C@@H]12` [Compound 196] gave an IC50 [1, 3] of less than 0.1 µM and an EC50 [2, 4] of less than 10 µM.

In the case of `CC(C)(C)OC(=O)N[C@H]1CCCCC/C=C\[C@@H]2C[C@@]2(C(=O)NCC2CC2)NC(=O)[C@@H]2C[C@@H](OC(=O)N3Cc4cccc(F)c4C3)CN2C1=O` [Compound 603], the IC50 [1, 3] is reported as less than 1 µM and the EC50 [2, 4] is reported as less than 1 µM.

For `C[C@H](NC(=O)O[C@@H]1C[C@H]2C(=O)N[C@]3(C(=O)NS(=O)(=O)C4CC4)C[C@H]3/C=C\CCCCC[C@H](NC(=O)OC(C)(C)C)C(=O)N2C1)c1ccc(F)cn1` [Compound 149], the IC50 [1, 3] was less than 0.1 µM and the EC50 [2, 4] was greater than 10 µM.

`CC(C)(C)OC(=O)N[C@H]1CCCCC/C=C\[C@@H]2C[C@@]2(C(=O)NS(=O)(=O)c2cc(Cl)sc2Cl)NC(=O)[C@@H]2C[C@@H](OC(=O)N3Cc4cccc(F)c4C3)CN2C1=O` [Compound 162] showed an IC50 [1, 3] of less than 0.1 µM and an EC50 [2, 4] of less than 0.1 µM.

`O=C1N[C@]2(C(=O)NS(=O)(=O)C3CC3)C[C@H]2/C=C\CCCCC[C@H](Nc2c(N3CCC3)c(=O)c2=O)C(=O)N2C[C@H](OC(=O)N3Cc4cccc(Cl)c4C3)C[C@@H]12` [Compound 241, (2R,6S,13aS,14aR,16aS,Z)-6-(2-(azetidin-1-yl)-3,4-dioxocyclobut-1-enylamino)-14a-(cyclopropylsulfonylcarbamoyl)-5,16-dioxo-1,2,3,5,6,7,8,9,10,11,13a,14,14a,15,16,16a-hexadecahydrocyclopropa[e]pyrrolo[1,2-a][1,4]diazacyclopentadecin-2-yl 4-chloroisoindoline-2-carboxylate] gave an IC50 [1, 3] of less than 0.1 µM and an EC50 [2, 4] of less than 1 µM.

`CN(C)C(=O)[C@@]12C[C@H]1/C=C\CCCCC[C@H](NC(=O)OC(C)(C)C)C(=O)N1C[C@H](OC(=O)N3Cc4cccc(F)c4C3)C[C@H]1C(=O)N2` [Compound 610] was tested, and the IC50 [1, 3] was less than 1 µM and the EC50 [2, 4] was greater than 10 µM.

`CN(C)S(=O)(=O)NC(=O)[C@@]12C[C@H]1/C=C\CCCCC[C@H](NC(=O)OC(C)(C)C)C(=O)N1C[C@H](OC(=O)N3Cc4cccc(Cl)c4C3)C[C@H]1C(=O)N2` [Compound 114] showed an IC50 [1, 3] of less than 0.1 µM and an EC50 [2, 4] of less than 0.1 µM.

`O=C1N[C@]2(C(=O)NS(=O)(=O)C3CC3)C[C@H]2/C=C\CCCCC[C@H](NC(=O)C2(O)CC2)C(=O)N2C[C@H](OC(=O)N3Cc4cccc(F)c4C3)C[C@@H]12` [Compound 249] showed an IC50 [1, 3] of less than 0.1 µM and an EC50 [2, 4] of less than 1 µM.

In the case of `N[C@H]1CCCCC/C=C\[C@@H]2C[C@@]2(C(=O)NS(=O)(=O)C2CC2)NC(=O)[C@@H]2C[C@@H](OC(=O)N3Cc4c(Cl)ccc(Cl)c4C3)CN2C1=O` [Compound 156], the IC50 [1] is reported as less than 0.1 µM and the EC50 [2, 4] is reported as less than 1 µM.

`N[C@H]1CCC(F)(F)CC/C=C\[C@@H]2C[C@@]2(C(=O)NS(=O)(=O)C2CC2)NC(=O)[C@@H]2C[C@@H](OC(=O)N3Cc4cccc(F)c4C3)CN2C1=O` [Compound 1003] was tested, and the IC50 [1, 3] was less than 0.1 µM and the EC50 [2, 4] was less than 1 µM.

With `CC(C)(C)OC(=O)N[C@H]1CCCCC/C=C\[C@@H]2C[C@@]2(C(=O)O)NC(=O)[C@@H]2C[C@@H](OC(=O)N3Cc4ccc(OCCn5cccn5)cc4C3)CN2C1=O` [Compound 130] the IC50 [1, 3] was less than 0.1 µM and the EC50 [2, 4] was less than 10 µM.

With `CC(C)(C)c1c(N[C@H]2CCCCC/C=C\[C@@H]3C[C@@]3(C(=O)NS(=O)(=O)C3CC3)NC(=O)[C@@H]3C[C@@H](OC(=O)N4Cc5cccc(F)c5C4)CN3C2=O)c(=O)c1=O` [Compound 261] the IC50 [1, 3] was less than 0.1 µM and the EC50 [2, 4] was less than 1 µM.

Work on `Cc1ccccc1S(=O)(=O)NC(=O)[C@@]12C[C@H]1/C=C\CCCCC[C@H](NC(=O)OC(C)(C)C)C(=O)N1C[C@H](OC(=O)N3Cc4cccc(F)c4C3)C[C@H]1C(=O)N2` [Compound 157] yielded an IC50 [1, 3] of less than 0.1 µM and an EC50 [2, 4] of less than 0.1 µM.

`N[C@H]1CCCCC/C=C\[C@@H]2C[C@@]2(C(=O)NCC2CC2)NC(=O)[C@@H]2C[C@@H](OC(=O)N3Cc4cccc(F)c4C3)CN2C1=O` [Compound 622] was tested, and the IC50 [1, 3] was less than 10 µM and the EC50 [2, 4] was less than 10 µM.

Compound `CC(C)(C)OC(=O)N[C@H]1CCCCC/C=C\[C@@H]2C[C@@]2(C(=O)NCC(O)(C(F)(F)F)C(F)(F)F)NC(=O)[C@@H]2C[C@@H](OC(=O)N3Cc4cccc(F)c4C3)CN2C1=O` [Compound 613] has an IC50 [1, 3] of less than 1 µM and an EC50 [2, 4] of less than 1 µM.

`CC(C)(C)OC(=O)NC1CCCCC/C=C\[C@H]2C[C@@]2(C(=O)NS(=O)(=O)NCC(F)(F)F)NC(=O)C2CC(OC(=O)N3Cc4cccc(Cl)c4C3)CN2C1=O` (single isomer, unassigned) [Compound 226] gave an EC50 [2, 4] of less than 0.1 µM.

`O=C(N[C@H]1CCCCC/C=C\[C@@H]2C[C@@]2(C(=O)NS(=O)(=O)C2CC2)NC(=O)[C@@H]2C[C@@H](OC(=O)N3Cc4cccc(F)c4C3)CN2C1=O)C(O)C(F)(F)F` (single isomer, unassigned) [Compound 247] was tested, and the EC50 [2, 4] was less than 0.1 µM.

With `O=C(CCC(F)(F)F)N[C@H]1CCCCC/C=C\[C@@H]2C[C@@]2(C(=O)NS(=O)(=O)C2CC2)NC(=O)[C@@H]2CCCN2C1=O` [Compound 2139] the EC50 [2, 5] was less than 1 µM.

`C[C@@H](NC(=O)O[C@@H]1C[C@H]2C(=O)N[C@]3(C(=O)NS(=O)(=O)C4CC4)C[C@H]3/C=C\CCCCC[C@H](NC(=O)OC(C)(C)C)C(=O)N2C1)c1ccc(F)cn1` [Compound 150] showed an EC50 [2, 4] greater than 10 µM.

In the case of `CC(C)(C)OC(=O)N[C@H]1CCCCC/C=C\[C@@H]2C[C@@]2(C(=O)NS(=O)(=O)C2(C)CC2)NC(=O)[C@@H]2C[C@@H](OC(=O)N3Cc4ccccc4C3)CN2C1=O` [Compound 100, (1S,4R,6S,14S,18R)-1,3-Dihydro-isoindole-2-carboxylic acid 14-tert-butoxycarbonylamino-4-(1-methylcyclopropane-1-sulfonyl)aminocarbonyl-2,15-dioxo-3,16-diaza-tricyclo[14.3.0.0^4,6]nonadec-7-en-18-yl ester], the EC50 ([2]; Huh-7, 72 h, read-out: Replicon EC50) is reported as less than 0.1 µM.

Work on `CC(C)(C)OC(=O)N[C@H]1CCCCC/C=C\[C@@H]2C[C@@]2(C(=O)NS(=O)(=O)NCCc2cccnc2)NC(=O)[C@@H]2CCCN2C1=O` [Compound 424] yielded an IC50 [1, 3] greater than 10 µM.

With `CC(C)(C)C(O)C(=O)N[C@H]1CCCCC/C=C\[C@@H]2C[C@@]2(C(=O)NS(=O)(=O)C2CC2)NC(=O)[C@@H]2C[C@@H](OC(=O)N3Cc4cccc(F)c4C3)CN2C1=O` (single isomer, unassigned) [Compound 248] the IC50 [1, 3] was less than 0.1 µM.

`COc1cccc(CCNS(=O)(=O)NC(=O)[C@@]23C[C@H]2/C=C\CCCCC[C@H](NC(=O)OC(C)(C)C)C(=O)N2CCC[C@H]2C(=O)N3)c1` [Compound 414] gave an IC50 [1, 3] greater than 10 µM.
